Consider one substance from patent publication US8017725B2, “Use of heparin-binding domain of fibronectin for diagnosis and treatment of cancer” (Novartis Forschungesstiftung Zweigniederlassung Friedrich …, priority 2001, dated 2011).

In assay [1] the test system is CHO-B2α27 cells. Kind of assay: DNA replication assay (3H-thymidine incorporation). Type of assay: cell-based, Chinese hamster. The following applies: CHO-B2α27, ITS. On the procedure: (§1) 96-well plates (Falcon) were coated as described above. Cells were serum starved overnight and trypsinised as described. 10^4 cells were transferred onto the coated plates in the presence of the indicated mitogens. 14 h later cells were labelled with radioactive ^3H-thymidine (0.5 μCi/well) for 4 h at 37° C., incorporated ^3H-thymidine was precipitated with 10% TCA and determined with a Beckman scintillation counter after cell lysis in 0.3N NaOH, 2% SDS. For long-term cell proliferation assays 2×10^3 MDA-MB435 cells were plated into ECM-coated 96-well plates in the presence of 10 ng/ml insulin and incubated for the indicated time points in a humidified chamber at 37° C. in a CO^2-incubator. 50% fresh medium with growth factor was added every 24 h. At different time points cells were trypsinised and counted.
(§2) DNA replication was determined by ^3H-thymidine incorporation and is described as relative increase in cpm over cells plated on fibronectin. Serum starved cells were triggered to enter S-phase by 40 ng/ml PDGF-BB (a), 100 ng/ml insulin (b) and ITS (c).

Assay [2] has as its system CHO-K1 cells. Briefly: DNA replication assay (3H-thymidine incorporation). Type of assay: cell-based, Chinese hamster. To be noted: CHO-K1, ITS. As to the method:
as §1, §2
For orientation: Dividing cells build labelled thymidine or BrdU into new DNA.

Assay [3] deals with CHO-B2 cells. Briefly: DNA replication assay (3H-thymidine incorporation). The following applies: CHO-B2, ITS. Type of assay: cell-based, Chinese hamster. On the procedure: as §1, §2
The test system of assay [4] is CHO-B2α27 cells. Kind of assay: Adhesion assay (attachment on coated ECM substrata). Type of assay: cell-based, Chinese hamster. The following applies: CHO-B2α27, 20 h adhesion, ITS. As to the method: (§3) 60-well microtiter plates (Nunc) were coated with 10 μg/ml ECM molecules giving rise to 1 μg/cm^2 (fibronectin and tenascin-C) and 4 μg/cm^2 (FNIII13) for 1 h at 37° C. ECM proteins were coated separately, starting with fibronectin, followed by tenascin-C, FNIII13 and BSA. The non-coated plastic surface was blocked with 1% heat-inactivated BSA in PBS giving rise to 10 μg/cm^2 protein. Similarly, mixed substrata of collagen I and laminin 1, respectively with tenascin-C were prepared and tenascin-C was detected by ELISA.
(§4) Efficient fibronectin and tenascin-C coating was determined by ELISA with an anti-fibronectin and anti-tenascin-C antibody (Fischer, D. et al (1995) J Biol Chem 270: 3378-3384), respectively and by PAGE analysis of lysed surface-bound ECM material combined with Coomassie Brilliant Blue staining. Before plating, cells were serum starved for 18 h in DMEM containing 1×ITS (insulin, transferrin, selene) supplement, trypsinised, trypsin was blocked with 100 μg/ml soybean trypsin inhibitor in PBS and, cells were resuspended in serum-free medium and counted. 200-500 cells per well were plated for the indicated time points, fixed by addition of glutaraldehyde (2% final concentration) for 15 minutes and stained with 0.1% crystalviolet in 20% methanol for 30 minutes. Cells were observed under a Nikon microscope (Nikon diaphot) and pictures were taken with a Nikon camera.
(§5) The inventors tested whether expression of integrins capable of binding to fibronectin influences tenascin-C-induced compromised attachment on fibronectin. CHO-K1 cells (which express moderate levels of α5β1 (Bauer, J. S. et al (1992) J Cell Biol 116: 477-487)) were compared for levels of adhesion on fibronectin and other ECM substrates with that of cells that either express essentially no fibronectin binding integrins (CHO-B2), or overexpress α5β1 (CHO-B2α27) and αvβ1 (CHO-B2v7), respectively (Schreiner, C. et al (1991) Cancer Res 51: 1738-1740).

For assay [5], the system named is CHO-K1 cells. Described as above. The following applies: CHO-K1, 20 h adhesion, ITS. Type of assay: cell-based, Chinese hamster. As to the method:
as §3, §4, §5

Assay [6] has as its system CHO-B2 cells. The assay is described as above. Type of assay: cell-based, Chinese hamster. The following applies: CHO-B2, 20 h adhesion, ITS. As to the method:
as §3, §4, §5

Assay [7] deals with MDA-MB435 breast carcinoma cells. Briefly: DNA replication assay (3H-thymidine incorporation). Type of assay: cell-based, human. The following applies: MDA MB 435, 100 ng/ml insulin. As to the method:
as §1
(§6) Cell proliferation and DNA synthesis of MDA-MB435 breast carcinoma, T98G glioblastoma, and Chinese hamster ovary […] cells (CHO) grown on fibronectin, tenascin-C and on mixed fibronectin/tenascin-C substrata was determined. […] After 27 h, 51 h, and 75 h cells were counted. 24% and 33% more cells were counted on fibronectin/tenascin-C than on fibronectin after 51 h and 75 h of culturing, respectively. […]
(§7) DNA replication was determined by ^3H-thymidine incorporation and is described as relative increase in cpm over cells plated on fibronectin. […]

Assay [8] relates to T98G glioblastoma cells. Kind of assay: DNA replication assay (3H-thymidine incorporation). Type of assay: cell-based, human. To be noted: 40 ng/ml PDGF-BB. On the procedure: as §1, §6, §7
The test system of assay [9] is MDA-MB435 breast carcinoma cells. Kind of assay: Adhesion assay (attachment on coated ECM substrata). Type of assay: cell-based, human. On the procedure:
as §3, §4

Assay [10] has as its system tumour cell lines. Kind of assay: Adhesion assay on tumour cell lines. Type of assay: cell-based. As to the method:
as §3
as §4, with “camera. […]” for “camera.”

The test system of assay [11] is all cell lines tested. Briefly: DNA replication assay, all cell lines tested. Type of assay: cell-based. On the procedure: as §1
In order to address whether tenascin-C alone and in ECM contexts other than fibronectin might also enhance proliferation, an investigation was carried out into DNA synthesis on a pure tenascin-C substratum where cells remained rounded and, on mixed substrata of collagen I and laminin 1 that contained tenascin-C where cells spread normally. […] To rule out that tenascin-C may shorten S-phase of the cell cycle in tumour cells, DNA synthesis of T98G cells was determined by assay every two hours starting 11 h after plating. […]

For assay [12], the system named is T98G glioblastoma cells. Briefly: Adhesion assay (attachment and spreading on coated ECM substrata). Type of assay: cell-based, human. On the procedure: as §3, §4

Regarding “TN: Full length chicken tenascin-C TN260, recombinant, expressed in HEK-293 cells, used as coated substratum”, the “DNA replication by 3H-thymidine incorporation” value is 11 +/− 3.9 relative increase in cpm over cells plated on fibronectin in assay [1]; 5.9 +/− 1.7 relative increase in cpm over cells plated on fibronectin in assay [2]; 7.1 +/− 0.2 relative increase in cpm over cells plated on fibronectin in [3]; 2.7 +/− 0.6 relative increase in cpm over cells plated on fibronectin in assay [7]; 3.0 +/− 0.9 relative increase in cpm over cells plated on fibronectin in assay [8]. Moreover, the “numbers of attached cells” value in assay [4] is listed as 4.3 +/− 0.7 % of cells attached on fibronectin; in assay [5] it was 4.7 +/− 0.2 % of cells attached on fibronectin; in assay [6], 8.0 +/− 2.9 % of cells attached on fibronectin; in assay [9] (MDA MB 435, 1 h attachment, serum free medium) it was 8.2 +/− 3.9 % of cells attached on fibronectin; in assay [9] (MDA MB 435, 20 h adhesion, 100 ng/ml insulin), 4.0 +/− 0.2 % of cells attached on fibronectin; in assay [12] (1 h attachment, serum free medium) it was 9.3 +/− 0.9 % of cells attached on fibronectin. Further, the “numbers of attached cells” value in [12] (20 h adhesion, 40 ng/ml PDGF-BB) was 14.6 +/− 0.4 % of cells attached on fibronectin. For the same substance, the “cells attached on tenascin-C” value in [10] (1 h after plating, all cell lines tested) is recorded as “less than 10%”. Besides, the “blocking of cell attachment on fibronectin” value in assay [10] (molar ratio of tenascin-C to fibronectin of 1:8) was “blocked cell attachment on fibronectin as efficiently as in an equimolar ratio”. For the same substance, the “DNA replication indices increase on pure tenascin-C” value in assay [11] is given as at most 11 fold.
